Laboratory results reported in patent US20180263925A1, “METHODS FOR THE TREATMENT OF ALOPECIA AREATA UTILIZING GENE MODULATION APPROACHES” (RXi Pharmaceuticals Corporation, priority 2014, published 2018).
Where two headings read alike, the source gives them in different places.

Tests used:
[1] = Solubility of DPCP in solvents for gels and ointments; format: physicochemical
Method: (§1) The compatibility and solubility of DPCP was determined in both isopropyl myristate (IPM) as well as Polysorbate 80 (PS80). […] Next, the stability of DPCP in these solvents was determined. A solution of 0.4% DPCP in isopropyl myristate and a solution of 0.4% DPCP in Polysorbate 80 was placed at 50° C. for two weeks. The stability of DPCP in these solvents was determined using reverse phase HPLC on a C18 column.

[2] = Stability of DPCP in solvents at 50° C., reverse phase HPLC on a C18 column; format: physicochemical
Method: as §1
For the development of a gel formulation, the stability of DPCP was determined in both Ethanol (ETOH) and Isopropanol (IPA) (0.4% DPCP solutions in each solvent was placed at 50° C. for two weeks; FIG. 2. All solutions contained 0.1% BHT). […] However, DPCP was stable in IPA. The stability of DPCP in the above solvents was determined using reverse phase HPLC on a C18 column.

[3] = system: alopecia areata; settings: cited from earlier work
[4] = system: CTGF mRNA; settings: rat skin, cited from earlier work; for reduction of CTGF mRNA: Days 1 and 3, biopsy Day 8, vs dose matched non-targeting control

Compound	solubility of DPCP ([1]; in Polysorbate 80 (PS80))	solubility of DPCP ([1]; in isopropyl myristate (IPM)) [% w/w]	stability of DPCP ([2]; 0.4% DPCP in Ethanol, 0.1% BHT, in the presence of citric acid, 50° C., two weeks)	stability of DPCP ([2]; 0.4% DPCP in Isopropanol (IPA), 0.1% BHT, 50° C., two weeks)	stability of DPCP ([2]; 0.4% DPCP in Polysorbate 80, 50° C., two weeks)	stability of DPCP ([2]; 0.4% DPCP in isopropyl myristate, 50° C., two weeks)	stability of DPCP ([2]; in PS80 with butylated hydroxytoloune (BHT))	initial hair regrowth visible after ([3]; alopecia areata patients, 2% sensitizing dose followed by 0.001% challenge doses)	response rates ([3]; in over 25 different studies for treating AA with haptens)	reduction of CTGF mRNA ([4]; 300 μg per intradermal injection) [%]	reduction of CTGF mRNA ([4]; 600 μg per intradermal injection) [%]	duration of silencing of CTGF vs. non-targeting control ([4]; following two intradermal injections)
O=c1c(-c2ccccc2)c1-c1ccccc1 [DPCP, Diphenylcyclopropenone]	highly soluble	~1.1	Some degradation	stable	some degradation	stable	reduce the amount of degradation	8-12 weeks	29-78%			
RXI-109: CTGF-targeting sd-rxRNA consisting of sense strand SEQ ID NO:27 (TEG-Chl) and antisense strand SEQ ID NO:28 (sense GCACCUUUCUAGA; antisense UCUAGAAAGGUGCAAACAU; TEG-cholesterol on sense strand; (2)..(2) Modified with 2′Ome; (4)..(10) Modified with 2′Ome; (11)..(13) Phosphorothioate internucleotide bond; (12)..(13) Modified with 2′Ome; (13)..(13) Modified with TEG-Chl; (1)..(1) Modified with P; (1)..(1) Modified with 2′Ome; (2)..(3) Modified with 2′fluoro; (6)..(6) Modified with 2′Ome; (8)..(8) Modified with 2′Ome; (11)..(11) Modified with 2′fluoro; (13)..(13) Modified with 2′Ome; (13)..(19) Phosphorothioate internucleotide bond; (17)..(17) Modified with 2′Ome)										51	67	sustained for at least five days
